pIC50: −log10 of the molar value. Structures can show the parent of a compound that is named as a salt.
Biological target: T1, human cloned dopamine D4.2 receptors (Homo sapiens, UniProt P21917, DEL265-296)
T1 construct: expressed in transfected cells; host or cells: CHO cells (membranes)
T1 sequence (P21917 with tags, fused parts or gaps DEL265-296): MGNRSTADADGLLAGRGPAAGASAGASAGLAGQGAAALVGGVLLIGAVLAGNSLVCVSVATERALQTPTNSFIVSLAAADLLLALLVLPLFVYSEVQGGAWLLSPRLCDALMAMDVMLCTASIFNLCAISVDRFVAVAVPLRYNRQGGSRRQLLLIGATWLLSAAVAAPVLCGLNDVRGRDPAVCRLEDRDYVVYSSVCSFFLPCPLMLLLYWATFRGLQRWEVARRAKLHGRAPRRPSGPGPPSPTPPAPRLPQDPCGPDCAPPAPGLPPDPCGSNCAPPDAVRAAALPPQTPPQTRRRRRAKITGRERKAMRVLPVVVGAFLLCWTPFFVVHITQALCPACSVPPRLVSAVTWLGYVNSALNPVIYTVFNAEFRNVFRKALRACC
Test: Inhibition of the binding of [3H]YM-09151-2 to human dopamine D4 receptors
Details: [3H]YM-09151-2 0.06 nM, membranes of CHO cells; read-out: D4-bind. IC50
Protocol: Inhibition of the Binding of [^3H]YM-09151-2 to Human Dopamine D4 Receptors
By this method, the inhibition by drugs of the binding of [^3H]YM-09151-2 (0.06 nM) to membranes of human cloned dopamine D4.2 receptors expressed in CHO-cells is determined in vitro. Method modified from NEN Life Science Products, Inc., technical data certificate PC2533-10/96.
Work on `O=C1CCc2ccccc2N1CCCN1CCC(c2c[nH]c3ccc(F)cc23)CC1` [Compound 2a, 5-Fluoro-3-{1-[3-(2-oxo-3,4-dihydro-2H-quinolin-1-yl)propan-1-yl]piperidin-4-yl}-1H-indole] yielded a pIC50 of 9.24.
`O=C1CCc2ccccc2N1CCCCCN1CCC(c2c[nH]c3ccc(F)cc23)CC1` [Compound 2b, 5-Fluoro-3-{1-[5-(2-oxo-3,4-dihydro-2H-quinolin-1-yl)pentan-1-yl]piperidin-4-yl}-1H-indole] gave a pIC50 of 7.92.
For `O=C1CCc2ccccc2N1CCCN1CCC(c2c[nH]c3ccc(Cl)cc23)CC1` [Compound 2c, 5-Chloro-3-{1-[3-(2-oxo-3,4-dihydro-2H-quinolin-1-yl)propan-1-yl]piperidin-4-yl}-1H-indole], the pIC50 was 9.16.
In the case of `O=C1CCc2ccccc2N1CCCCN1CCC(c2c[nH]c3ccc(Cl)cc23)CC1` [Compound 2d, 5-Chloro-3-{1-[4-(2-oxo-3,4-dihydro-2H-quinolin-1-yl)butan-1-yl]piperidin-4-yl}-1H-indole], the pIC50 was 8.10.
For `O=C1CCc2ccccc2N1CCCCCN1CCC(c2c[nH]c3ccc(Cl)cc23)CC1` [Compound 2e, 5-Chloro-3-{1-[5-(2-oxo-3,4-dihydro-2H-quinolin-1-yl)pentan-1-yl]piperidin-4-yl}-1H-indole], the pIC50 was 7.92.
Work on `O=C1COc2ccccc2N1CCCCN1CCC(c2c[nH]c3ccc(F)cc23)CC1` [Compound 2g, 5-Fluoro-3-{1-[4-(3-oxo-3,4-dihydro-2H-1,4-benzoxazin-4-yl)butan-1-yl]piperidin-4-yl}-1H-indole] yielded a pIC50 of 8.12.
In the case of `O=C1COc2ccccc2N1CCCCN1CCC(c2c[nH]c3ccc(Cl)cc23)CC1` [Compound 2h, 5-Chloro-3-{1-[4-(3-oxo-3,4-dihydro-2H-1,4-benzoxazin-4-yl)butan-1-yl]piperidin-4-yl}-1H-indole], the pIC50 was 8.00.
Work on `O=C1CCc2ccccc2N1CCCN1CC=C(c2c[nH]c3ccc(F)cc23)CC1` [Compound 3a, 5-Fluoro-3-{1-[3-(2-oxo-3,4-dihydro-2H-quinolin-1-yl)propan-1-yl]-3,6-dihydro-2H-pyridin-4-yl}-1H-indole] yielded a pIC50 of 9.15.
Molecule `O=C1CCc2ccccc2N1CCCCN1CC=C(c2c[nH]c3ccc(F)cc23)CC1` [Compound 3b, 5-Fluoro-3-{1-[4-(2-oxo-3,4-dihydro-2H-quinolin-1-yl)butan-1-yl]-3,6-dihydro-2H-pyridin-4-yl}-1H-indole] has a pIC50 of 8.30.
With `O=C1CCc2ccccc2N1CCCCCN1CC=C(c2c[nH]c3ccc(F)cc23)CC1` [Compound 3c, 5-Fluoro-3-{1-[5-(2-oxo-3,4-dihydro-2H-quinolin-1-yl)pentan-1-yl]-3,6-dihydro-2H-pyridin-4-yl}-1H-indole] the pIC50 was 7.82.
With `O=C1CCc2ccccc2N1CCCCN1CCC(c2c[nH]c3ccc(F)cc23)CC1` [Compound 4, 5-Fluoro-3-{1-[4-(2-oxo-3,4-dihydro-2H-quinolin-1-yl)butan-1-yl]piperidin-4-yl}-1H-indole] the pIC50 was 8.32.
Molecule `Fc1ccc2[nH]cc(C3=CCN(CCCN4CCCc5ccccc54)CC3)c2c1` [Compound 9l, 5-Fluoro-3-{1-[3-(3,4-dihydro-2H-quinolin-1-yl)propan-1-yl]-3,6-dihydro-2H-pyridin-4-yl}-1H-indole] has a pIC50 of 9.29.
`Fc1ccc2[nH]cc(C3=CCN(CCCCN4CCCc5ccccc54)CC3)c2c1` [Compound 9m, 5-Fluoro-3-{1-[4-(3,4-dihydro-2H-quinolin-1-yl)butan-1-yl]-3,6-dihydro-2H-pyridin-4-yl}-1H-indole] showed a pIC50 of 7.77.
With `Fc1ccc2[nH]cc(C3=CCN(CCCCCN4CCCc5ccccc54)CC3)c2c1` [Compound 9n, 5-Fluoro-3-{1-[5-(3,4-dihydro-2H-quinolin-1-yl)pentan-1-yl]-3,6-dihydro-2H-pyridin-4-yl}-1H-indole] the pIC50 was 7.28.

Same assay, conditions: at 50 nM compound; [3H]YM-09151-2 0.06 nM, membranes of CHO cells
For `O=C1c2ccccc2CCN1CCCN1CCC(c2c[nH]c3ccc(F)cc23)CC1` [Compound 1b], the “D4-bind. % inhibition of binding at 50 nM” value (shortened to “D4-bind. % inhibition”) was 97%.
With `O=C1c2ccccc2CCN1CCCCN1CCC(c2c[nH]c3ccc(F)cc23)CC1` [Compound 1c] the “D4-bind. % inhibition” value was 95%.
With `O=C(CCCCN1CCC(c2c[nH]c3c(Cl)cccc23)CC1)N1CCc2ccccc2C1` [Compound 10l] the “D4-bind. % inhibition” value was 82%.

Same assay, conditions: at 50 nM compound; [3H]YM-09151-2 0.06 nM, membranes of CHO cells; read-out: D4-bind. % inhibition of binding at 50 nM
With `O=C1CCc2ccccc2N1CCN1CCC(c2c[nH]c3ccc(F)cc23)CC1` [Compound 1a, 5-Fluoro-3-{1-[2-(2-oxo-3,4-dihydro-2H-quinolin-1-yl)ethyl]piperidin-4-yl}-1H-indole] the inhibition at 0.05 µM was 92%.
With `O=C1CCc2ccccc2N1CCCCN1CCC(c2c[nH]c3c(Cl)cccc23)CC1` [Compound 2f, 7-Chloro-3-{1-[4-(2-oxo-3,4-dihydro-2H-quinolin-1-yl)butan-1-yl]piperidin-4-yl}-1H-indole] the inhibition at 0.05 µM was 78%.
`O=C(CCN1CCC(c2c[nH]c3cccc(F)c23)CC1)N1CCc2ccccc2C1` [Compound 10a, 4-Fluoro-3-{1-[3-(3,4-dihydro-1H-isoquinolin-2-yl)-3-oxopropan-1-yl]piperidin-4-yl}-1H-indole] gave an inhibition at 0.05 µM of 93%.
With `O=C(CCCN1CCC(c2c[nH]c3cccc(F)c23)CC1)N1CCc2ccccc2C1` [Compound 10b, 4-Fluoro-3-{1-[4-(3,4-dihydro-1H-isoquinolin-2-yl)-4-oxobutan-1-yl]piperidin-4-yl}-1H-indole] the inhibition at 0.05 µM was 81%.
In the case of `O=C(CCCCCN1CCC(c2c[nH]c3cccc(F)c23)CC1)N1CCc2ccccc2C1` [Compound 10c, 4-Fluoro-3-{1-[6-(3,4-dihydro-1H-isoquinolin-2-yl)-6-oxohexan-1-yl]piperidin-4-yl}-1H-indole], the inhibition at 0.05 µM was 21%.
For `O=C(CCCN1CCC(c2c[nH]c3cccc(Cl)c23)CC1)N1CCc2ccccc2C1` [Compound 10d, 4-Chloro-3-{1-[4-(3,4-dihydro-1H-isoquinolin-2-yl)-4-oxobutan-1-yl]piperidin-4-yl}-1H-indole], the inhibition at 0.05 µM was 86%.
Work on `O=C(CCCCN1CCC(c2c[nH]c3cccc(Cl)c23)CC1)N1CCc2ccccc2C1` [Compound 10e, 4-Chloro-3-{1-[5-(3,4-dihydro-1H-isoquinolin-2-yl)-5-oxopentan-1-yl]piperidin-4-yl}-1H-indole] yielded an inhibition at 0.05 µM of 25%.
For `O=C(CCCCCN1CCC(c2c[nH]c3cccc(Cl)c23)CC1)N1CCc2ccccc2C1` [Compound 10f, 4-Chloro-3-{1-[6-(3,4-dihydro-1H-isoquinolin-2-yl)-6-oxohexan-1-yl]piperidin-4-yl}-1H-indole], the inhibition at 0.05 µM was 17%.
For `O=C(CCCCN1CCC(c2c[nH]c3ccc(F)cc23)CC1)N1CCc2ccccc2C1` [Compound 10g, 5-Fluoro-3-{1-[5-(3,4-dihydro-1H-isoquinolin-2-yl)-5-oxopentan-1-yl]piperidin-4-yl}-1H-indole], the inhibition at 0.05 µM was 65%.
Molecule `O=C(CCCCCN1CCC(c2c[nH]c3ccc(F)cc23)CC1)N1CCc2ccccc2C1` [Compound 10h, 5-Fluoro-3-{1-[6-(3,4-dihydro-1H-isoquinolin-2-yl)-6-oxohexan-1-yl]piperidin-4-yl}-1H-indole] has an inhibition at 0.05 µM of 50%.
With `O=C(CCN1CCC(c2c[nH]c3cc(Cl)ccc23)CC1)N1CCc2ccccc2C1` [Compound 10i, 6-Chloro-3-{1-[3-(3,4-dihydro-1H-isoquinolin-2-yl)-3-oxopropan-1-yl]piperidin-4-yl}-1H-indole] the inhibition at 0.05 µM was 94%.
In the case of `O=C(CCCCCN1CCC(c2c[nH]c3cc(Cl)ccc23)CC1)N1CCc2ccccc2C1` [Compound 10j, 6-Chloro-3-{1-[6-(3,4-dihydro-1H-isoquinolin-2-yl)-6-oxohexan-1-yl]piperidin-4-yl}-1H-indole], the inhibition at 0.05 µM was 70%.
In the case of `O=C(CCCN1CCC(c2c[nH]c3c(Cl)cccc23)CC1)N1CCc2ccccc2C1` [Compound 10k, 7-Chloro-3-{1-[4-(3,4-dihydro-1H-isoquinolin-2-yl)-4-oxobutan-1-yl]piperidin-4-yl}-1H-indole], the inhibition at 0.05 µM was 95%.
Molecule `O=C(CCCCCN1CCC(c2c[nH]c3c(Cl)cccc23)CC1)N1CCc2ccccc2C1` [Compound 10m, 7-Chloro-3-{1-[6-(3,4-dihydro-1H-isoquinolin-2-yl)-6-oxohexan-1-yl]piperidin-4-yl}-1H-indole] has an inhibition at 0.05 µM of 69%.

Test system: not given
Test: not given
Details: not given
Molecule `O=C1CCc2ccccc2N1CCCCN1CCC(c2c[nH]c3ccc(F)cc23)CC1` (as salt: hydrochloride) [Compound 4, 5-Fluoro-3-{1-[4-(2-oxo-3,4-dihydro-2H-quinolin-1-yl)butan-1-yl]piperidin-4-yl}-1H-indole] has a melting point of 212 to 213 °C.
`O=C1CCc2ccccc2N1CCCN1CC=C(c2c[nH]c3ccc(F)cc23)CC1` (as salt: oxalate) [Compound 3a, 5-Fluoro-3-{1-[3-(2-oxo-3,4-dihydro-2H-quinolin-1-yl)propan-1-yl]-3,6-dihydro-2H-pyridin-4-yl}-1H-indole] showed a melting point of 220 to 223 °C.
`O=C(CCCN1CCC(c2c[nH]c3ccc(F)cc23)CC1)N1CCc2ccccc2C1` [Compound 7, 5-Fluoro-3-{1-[4-(3,4-dihydro-1H-isoquinolin-2-yl)-4-oxobutan-1-yl]piperidin-4-yl}-1H-indole] showed a melting point of 146 to 148 °C.

— patent publication US7276508B2, “Indole derivatives useful for the treatment of CNS disorders” (H. Lundbeck A/S, priority 2000, dated 2007)
